Source: patent EP0724571B1, “SUBSTITUTED PYRIDINE-2-ONES AND SUBSTITUTED PYRIDINE-2-THIONES AS BIOCIDES” (Arch Chemicals, Inc., priority 1993, dated 1995)
≈ marks a conversion by molar mass, not a printed value.

Assays:
Assay in all cases: Minimum Inhibitory Concentration (MIC), broth serial dilution
Format in all cases: cell-based
Staphylococcus aureus = settings: 48 h; B=Staphylococcus aureus; Tryptic Soy Broth, 10^6 CFU/ml, 37°C, bacteria incubated two days
Protocol: (§1) Solutions of the experimental compounds in dimethyl sulfoxide were serially diluted in nutrient broth (Tryptic Soy Broth for bacteria and Sabouraud Dextrose Broth for fungi) in microliter plates. Equal volumes of a broth suspension of bacteria (10^6 CFU/ml) or fungi (10^5 cells or spores/ml) were added to each dilution, and the plates were incubated at 37°C (bacteria and yeast) or 28°C (molds). Bacteria, yeast and molds were incubated two, five and seven days respectively before determining the highest inhibitory dilution.

Escherichia coli = settings: 48 h; A=Escherichia coli; Tryptic Soy Broth, 10^6 CFU/ml, 37°C, bacteria incubated two days
Protocol: as §1

Fusarium sp. = settings: 168 h; D=Fusarium sp.; Sabouraud Dextrose Broth, 10^5 cells or spores/ml, 28°C, molds incubated seven days
Protocol: as §1

Aureobasidium pullulans = settings: F=Aureobasidium pullulans; Sabouraud Dextrose Broth, 10^5 cells or spores/ml
Protocol: as §1

Aspergillus niger = settings: 168 h; E=Aspergillus niger; Sabouraud Dextrose Broth, 10^5 cells or spores/ml, 28°C, molds incubated seven days
Protocol: as §1

Candida albicans = settings: 120 h; C=Candida albicans; Sabouraud Dextrose Broth, 10^5 cells or spores/ml, 37°C, yeast incubated five days
Protocol: as §1

| Compound | MIC (Staphylococcus aureus) [µg/mL] | MIC (Escherichia coli) [µg/mL] | MIC (Fusarium sp.) [µg/mL] | MIC (Aureobasidium pullulans) [µg/mL] | MIC (Aspergillus niger) [µg/mL] | MIC (Candida albicans) [µg/mL] |
| --- | --- | --- | --- | --- | --- | --- |
| CCCCCCCCOc1cccc(=S)n1O [Example 3, 1-hydroxy-6-octyloxypyridine-2(1H)-thione] | 16 (≈ 62.7 µM) | 16 (≈ 62.7 µM) | 4 (≈ 15.7 µM) | 16 (≈ 62.7 µM) | 8 (≈ 31.3 µM) | 4 (≈ 15.7 µM) |
| CC(CCOc1cccc(=O)n1O)CC(C)(C)C (stereo not drawn) [Example 1, 1-Hydroxy-6-(3,5,5-trimethylhexyloxy)-pyridine-2(1H)-one] | 32 (≈ 126 µM) | 32 (≈ 126 µM) | 2 (≈ 7.89 µM) | 2 (≈ 7.89 µM) | 16 (≈ 63.2 µM) | 2 (≈ 7.89 µM) |
| CCCCCCCCOc1cccc(=O)n1O [Example 2, 1-Hydroxy-6-octyloxypyridine-2(1H)-one] | 16 (≈ 66.9 µM) | 32 (≈ 134 µM) | 2 (≈ 8.36 µM) | 4 (≈ 16.7 µM) | 32 (≈ 134 µM) | 4 (≈ 16.7 µM) |
| Cc1cc(CC(C)CC(C)(C)C)n(O)c(=O)c1 (stereo not drawn) [OCTOPIROX® biocide, reference compound] | 64 (≈ 270 µM) | 128 (≈ 539 µM) | 2 (≈ 8.43 µM) | 16 to 32 (≈ 67.4 to 135 µM) | 2 (≈ 8.43 µM) | 2 (≈ 8.43 µM) |
